What is called inhibition is the percentage by which the read-out fell short of the control.

Assay [1] addresses T1, SBPase (Arabidopsis thaliana, UniProt P46283).
T1 construct: gene At3g55800
T1 sequence (P46283 75-393): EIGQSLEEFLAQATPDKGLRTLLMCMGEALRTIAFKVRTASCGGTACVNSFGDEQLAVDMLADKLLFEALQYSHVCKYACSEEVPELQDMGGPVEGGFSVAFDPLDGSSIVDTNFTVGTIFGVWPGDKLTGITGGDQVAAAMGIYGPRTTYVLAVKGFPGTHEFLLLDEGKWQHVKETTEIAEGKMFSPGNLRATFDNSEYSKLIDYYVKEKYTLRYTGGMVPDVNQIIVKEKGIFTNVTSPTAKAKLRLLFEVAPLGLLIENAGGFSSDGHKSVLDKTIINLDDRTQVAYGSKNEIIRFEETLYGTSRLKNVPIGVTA
Description: malachite green phosphate release assay. It is filed as biochemical. To be noted: read-out: % inhibition at 10 mM.

Assay [2] concerns the target T1, SBPase. The experiment in a line: malachite green phosphate release assay. It is filed as biochemical. Conditions: 500 µM; alternative substrate; 15 mM MgCl2, 10 mM DTT; thioredoxin F1-activated; room temperature activation.

SMILES strings stand for the structures.

As to `O=C1O[C@H]([C@@H](O)CO)C(O)=C1O` [Ascorbate], the inhibition at 10000 µM at SBPase [1] was about 57%.

`O=P(O)(O)OC[C@H]1OC(O)(COP(=O)(O)O)[C@@H](O)[C@@H]1O` (some centres unmarked) [fructose-1-6-bisphosphate]: the “malachite green phosphate release assay” value at SBPase [2] is reported as “conversion rate of the alternative SBPase substrate fructose-1-6-bisphosphate to fructose-6-phosphate”.

Values taken from PMC11444284, “Chloroplastic ascorbate modifies plant metabolism and may act as a metabolite signal regardless of oxidative stress” (Plant Physiology, 2024).
